Data from patent US9750757B2, “Methods of prevention or treatment for pathologic thrombosis or inflammation” (THOMAS JEFFERSON UNIVERSITY, priority 2013, dated 2017).
Entries after “also recorded” stand apart in the source; their conditions may differ.

Tests used:
[1] = tested on: platelet rich plasma (PRP); experiment: Light transmission aggregometry in platelet rich plasma, agonist-induced maximal aggregation (PRAX1); format: cell-based, human; conditions: for Mean percent maximal aggregation, Black: PRP of black subjects; for Mean percent maximal aggregation, White: PRP of white subjects
Method: (1) Houston studies. A complete blood count and mean platelet volume were obtained using an ABX Micros 60 CS (Horiba ABX, Irvine, Calif., USA). Using light transmission aggregometry, maximal percent aggregation and slope of aggregation at 10 min in platelet rich plasma (PRP) treated with: 0.5 mg/ml arachidonic acid, 4 μM ADP, 1 μM and 2 μM PAR1 activating peptide (PAR1-AP), and 50 μM and 75 μM PAR4 activating peptide (PAR4-AP) were measured. (2) Philadelphia studies. Light transmission aggregometry of washed platelets was used to assess thrombin-induced platelet aggregation without or with a 2 min pre-incubation with 20 μM BMS-200261 (BMS, PAR1-specific antagonist) (Quinton et al., J. Biol. Chem. 2004, 279, 18434-18439). A difference in the efficacy of the PAR1 inhibitor was observed between the pilot and replicate studies, but validation of inhibitor activity was confirmed for both studies (FIG. 1B inset and FIG. 7E). For assessment of calcium mobilization, platelets were re-calcified to a final concentration of 1 mM followed by pre-incubation with Fluo-4 AM for 10 min. The platelets were then stimulated with PAR4-AP and calcium mobilization was measured using the Accuri C6 flow cytometer (Yeung et al., Mol. Pharmacol. 2012, 81, 420-430). In both Houston and Philadelphia, technical variation was minimized by use of the same highly-trained technicians, same lots of reagents and same instruments throughout the duration of the study. Because multiple concentrations were used to activate PAR1 and PAR4 to induce platelet aggregation, an integrated score was developed that combined these values to determine a single index that represented each individual's agonist response. This score correlated strongly with standard assessment of maximal percent aggregation, but inclusion of slope (which was a minor contributor to the overall score, and highly related to maximal aggregation) allowed distinction among platelets with the same maximal aggregation value. This score was highly reproducible in 10 subjects studied weekly for three or four weeks.

[2] = tested on: platelets, PAR4-AP-induced aggregation; experiment: PAR4-AP-induced aggregation of washed platelets (light transmission aggregometry); format: cell-based; conditions: washed human platelets incubated 30 min with inhibitor; sub-threshold concentrations of PAR4-AP
Method: (§1) The indicated concentrations of LDN-193,188 were incubated for 30 min with washed platelets and stimulated with sub-threshold concentrations of activating PAR peptides. […] Biol. Chem. 2004, 279, 18434-18439). […] For assessment of calcium mobilization, platelets were re-calcified to a final concentration of 1 mM followed by pre-incubation with Fluo-4 AM for 10 min. The platelets were then stimulated with PAR4-AP and calcium mobilization was measured using the Accuri C6 flow cytometer (Yeung et al., Mol. Pharmacol. 2012, 81, 420-430). In both Houston and Philadelphia, technical variation was minimized by use of the same highly-trained technicians, same lots of reagents and same instruments throughout the duration of the study. […] This score correlated strongly with standard assessment of maximal percent aggregation, but inclusion of slope (which was a minor contributor to the overall score, and highly related to maximal aggregation) allowed distinction among platelets with the same maximal aggregation value. This score was highly reproducible in 10 subjects studied weekly for three or four weeks.

[3] = target: T1, PC-TP (Homo sapiens, UniProt Q9UKL6); conditions: Shishova et al. 2011; cited from earlier work
T1 sequence (Q9UKL6 1-214): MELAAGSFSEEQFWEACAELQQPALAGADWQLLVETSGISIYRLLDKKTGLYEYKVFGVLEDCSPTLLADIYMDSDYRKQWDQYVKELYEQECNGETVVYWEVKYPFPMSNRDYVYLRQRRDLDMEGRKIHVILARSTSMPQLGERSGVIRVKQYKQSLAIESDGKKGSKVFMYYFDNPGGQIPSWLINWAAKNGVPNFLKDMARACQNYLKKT

[4] = tested on: platelets, PAR1-AP-induced aggregation; experiment: PAR1-AP-induced aggregation of washed platelets (light transmission aggregometry); format: cell-based; conditions: washed human platelets incubated 30 min with inhibitor; sub-threshold concentrations of PAR1-AP
Method: as §1

[5] = target: T1, PC-TP; conditions: Wagel et al. 2008; cited from earlier work

CCCCC/C=C\C/C=C\C/C=C\C/C=C\CCCC(=O)O [AA, arachidonic acid]
Fold difference (Black/White) ([1]; 500 μg/ml AA): 0.99 fold | Mean percent maximal aggregation, Black ([1]; 500 μg/ml AA): 86.57% | Mean percent maximal aggregation, White ([1]; 500 μg/ml AA): 87.21%

Nc1ncnc2c1ncn2[C@@H]1O[C@H](COP(=O)(O)OP(=O)(O)O)[C@@H](O)[C@H]1O [ADP]
Fold difference (Black/White) ([1]; 4 μM ADP): 0.91 fold | Mean percent maximal aggregation, Black ([1]; 4 μM ADP): 40.89% | Mean percent maximal aggregation, White ([1]; 4 μM ADP): 45.04%

Cc1cc(C)nc(NS(=O)(=O)c2ccc(NC(=O)NC(=O)c3ccc(Cl)cc3Cl)cc2)n1 [LDN-193,188, 2,4-dichloro-N-(4-(N-(4,6-dimethylpyrimidin-2-yl)sulfamoyl)phenylcarbamoyl)-benzamide]
Effect on PAR4-AP-induced platelet aggregation [2]: prevented aggregation; also recorded: blocked; also recorded: does block | Displacement of phosphatidylcholine from PC-TP [3]: displaces phosphatidylcholine from the lipid binding pocket | Thermal stability of PC-TP [3]: increases the thermal stability | Effect on PAR1-AP-induced platelet aggregation [4]: does not block | Phosphatidylcholine transfer activity of PC-TP [5]: inhibitor
